{"source": "patent US7750181B2", "about": "“Antiproliferative agents” (EPX Research Limited, priority 2002, dated 2010)", "key": {"[1]": {"test_system": "MAC15 tumour, murine colon cancer", "test": "Tumour growth inhibition, MAC15 tumour transplanted s.c.", "format": "in vivo, NMRI mice", "settings": "intraperitoneal; for Tumour weight: individual animals", "protocol": "(§1) Pure strain NMRI mice (age 6-8 weeks) from our inbred colony were used for transplanting MAC (murine colon cancer) tumours, M5076 reticulum cell sarcoma (ovarian) were transplanted in BDF1 mice purchased from Harlan, Bicester, U.K. Animals were fed on RM3E diet (Lillco-England) and water ad libitum.\nThe tumour is routinely passaged as an ascites. Approximately 2×10^5 cells were transplanted subcutaneously in saline in a volume of 0.2 ml. Mice were randomised in groups of 5-7 animals per group. Untreated or vehicle controls were included. Treatment commenced two days after transplant. Body weight was recorded daily. The effects of chemotherapy were assessed between 7-9 days after transplant. Mice were killed and the effects measured by the differences in tumour weights and expressed as: % T/C, i.e. […] Body weight changes were recorded in order to assess toxicity."}, "[2]": {"test_system": "M5076 tumour, ovarian cancer (reticulum cell sarcoma)", "test": "Tumour growth inhibition, M5076 tumour transplanted i.m.", "format": "in vivo, BDF1 mice", "settings": "400 mg/kg body weight, intraperitoneal, days of treatment 1-11", "from_the_text": "as §1\n(§2) Approximately 2×2 mm of MAC13 tumour fragments were transplanted subcutaneously in the inguinal region via a trocar while the M5076 was homogenised and 1×10^6 cells transplanted intramuscularly in the inguinal region. Tumour bearing mice were randomised in groups of 5-7 animals per group. Treatment commenced one day after transplant for M5076 and two days for MAC13. Untreated or vehicle controls were included. Daily weights were recorded. Chemotherapy effects were assessed on day 14 or thereabouts depending on the tumour sizes and condition of the animals. Mice were killed and the effects of the chemotherapy were assessed by the differences in tumour weights and expressed as: % T/C, i.e. inhibition=100-Treated weight/Control weight×100% Body weight changes were recorded in order to assess toxicity. MAC15A"}, "[3]": {"test_system": "MAC 13 tumour, murine colon cancer", "test": "Tumour growth inhibition, MAC 13 tumour transplanted s.c.", "format": "in vivo, NMRI mice", "settings": "400 mg/kg body weight, intraperitoneal, days of treatment 1-5", "from_the_text": "as §1, §2"}, "[4]": {"test_system": "H460 non-small cell lung cancer human xenograft", "test": "Antitumour test, H460 NSCLC human xenograft", "format": "in vivo, Nu nude mice", "settings": "500 mg/kg, i.p. days 0-4", "protocol": "(§3) Fragments of the non-small cell lung cancer, H460, and DLD-1 colon cancer human xenografts were transplanted sub-cutaneously in both flanks of 14 female Nu nude mice from an inbred colony (B7K Universal, Hull, UK). Mice received CRM diet (SDS, WItham, UK) and water ad libitum. All experiments were carried out under a project license issued by the UK Home Office, and UKCCCR guidelines were followed throughout.\n(§4) Therapy commenced once tumours had grown to a sufficient size to be measured accurately (minimum 4 mm×4 mm), which was 10 days for H460 and 19 days for DLD-1. 10 tumours grew sufficiently to use in 7 mice for both the test and untreated groups.\nIn the case of H460, the compound of Example 4 was administered at a concentration of 500 mg/kg body weight/day, intraperitoneally (i.p.), daily for 5 days (designated days 0-4). Animals were monitored daily for any toxicity effects, and tumours were measured, and weights recorded daily over the period of therapy and then on day 7 (untreated and test groups), and day 8 (test group). On day 7 for the untreated group, and day 8 for the test group, the largest tumour diameter was greater than the maximum permitted 17 mm, and subjects were then euthenised by UK Home Office Schedule 1 methods.\n(§5) In both cases tumour volumes were assessed by caliper measurements of 2 perpendicular diameters and the volumes estimated using the following equation: Volumes−(a^2×b)/2, where a is the smaller, and b the larger diameter of the two. The effects of the therapy were determined from the difference in tumour volume-doubling time between treated and control groups, and the significance of any tumour growth delay determined using the Mann-Whitney U Test."}, "[5]": {"test_system": "DLD-1 colon cancer human xenograft", "test": "Antitumour test, DLD-1 colon cancer human xenograft", "format": "in vivo, Nu nude mice", "settings": "500 mg/kg, i.p. days 0-4", "protocol": "as §3, §4\n[…], and assessing tumour growth compared to a control untreated group until the tumours have reached the maximum permitted size (day 16 control and tested group).\nas §5"}, "[6]": {"settings": "300 mg/kg body weight, days of treatment 1-5"}, "[7]": {"settings": "400 mg/kg body weight, days of treatment 1-5"}, "[8]": {"settings": "RTV2 = relative tumour volume doubling"}}, "note": "Where “and” joins values, the source holds several entries; their conditions need not be identical. Identical values can stand only once.", "data": [{"smiles": "CN(C=O)C(=O)/C(Cl)=C(/Cl)C(=O)O", "note": "[Example 3, (Z)-2,3-dichloro-4-[N-formyl-N-methylamino]-4-oxo-but-2-enoic acid]", "values": [{"measurement": "% Tumour growth inhibition", "setting": "[1]; [6]", "result": 68, "unit": "%"}, {"measurement": "Mean tumour weight", "setting": "[1]; [6]", "result": 0.195, "unit": "g"}, {"measurement": "% Tumour growth inhibition", "setting": "[1]; [7]", "result": 81, "unit": "%"}, {"measurement": "Mean tumour weight", "setting": "[1]; [7]", "result": 0.117, "unit": "g"}, {"measurement": "Tumour weight", "setting": "[1]; 300 mg/kg body weight, days of treatment 1-5, 300 mg/kg", "result": "0.194 g and 0.201 g and 0.190 g and 0.176 g and 0.214 g"}, {"measurement": "Tumour weight", "setting": "[1]; 400 mg/kg body weight, days of treatment 1-5, 400 mg/kg", "result": "0.074 g and 0.094 g and 0.190 g and 0.096 g and 0.132 g"}, {"measurement": "% Tumour growth inhibition", "setting": "[2]", "result": 97, "unit": "%"}, {"measurement": "Mean tumour weight", "setting": "[2]", "result": 0.008, "unit": "g"}, {"measurement": "Tumour weight", "setting": "[2]; individual animals, 400 mg/kg", "result": "0 g (5×) and 0.052 g"}, {"measurement": "% Tumour growth inhibition", "setting": "[3]", "result": 92, "unit": "%"}, {"measurement": "Mean tumour weight", "setting": "[3]", "result": 0.031, "unit": "g"}, {"measurement": "Tumour weight", "setting": "[3]; individual animals, 400 mg/kg", "result": "0.053 g and 0.045 g and 0.030 g and 0.023 g and 0.0 g and 0.036 g"}]}, {"smiles": "CN1C(=O)C(Cl)=C(Cl)C(=O)C1O", "note": "(centres unmarked) [Example 4, 3,4-dichloro-6-hydroxy-1-methyl-2,5-dioxo-1.6-dihydropyridine]", "values": [{"measurement": "% Tumour growth inhibition", "setting": "[1]; 500 mg/kg body weight, day 1-5", "result": 86, "unit": "%"}, {"measurement": "Mean tumour weight", "setting": "[1]; 500 mg/kg body weight, day 1-5", "result": 0.056, "unit": "g"}, {"measurement": "Tumour weight", "setting": "[1]; 500 mg/kg body weight, day 1-5, 500 mg/kg", "result": "0.076 g and 0.033 g and 0.0 g (3×) and 0.090 g and 0.060 g and 0.134 g and 0.114 g"}, {"measurement": "Maximum % weight loss", "setting": "[4]", "result": 6.9, "unit": "%"}, {"measurement": "Median time RTV2", "setting": "[4]", "result": 6.4, "unit": "days"}, {"measurement": "Mean time to RTV2", "setting": "[4]; [8]", "result": 6.2, "unit": "days"}, {"measurement": "Growth delay", "setting": "[4]; versus untreated controls", "result": 3.9, "unit": "days"}, {"measurement": "Maximum % weight loss", "setting": "[5]", "result": 4.3, "unit": "%"}, {"measurement": "Median time RTV2", "setting": "[5]", "result": 9.8, "unit": "days"}, {"measurement": "Mean time to RTV2", "setting": "[5]; [8]", "result": 9.9, "unit": "days"}, {"measurement": "Growth delay", "setting": "[5]; versus untreated controls", "result": 6.7, "unit": "days"}]}]}
